This note sets out measurements from patent US20190380912A1, “EXCIPIENT FREE GLUCOSAMINE TABLETS AND METHOD OF MAKING” (Purepharm Inc., priority 2018, published 2019).

This data set is described as follows: Friability and hardness of dried tablets on handling. To be noted: Pellet Press, dry powder without water. Format: physicochemical.

`CC(=O)N[C@H]1C(O)O[C@H](CO)[C@@H](O)[C@@H]1O` (stereo partly shown) [N-Acetylglucosamine]: the compressibility result is “did not compress at all”.
